Data published in patent US8487121B2, “Chromane derivatives as TRPV3 modulators” (Glenmark Pharmaceuticals S.A., priority 2007, dated 2013).

Target: T1, Human TRPV3 (Homo sapiens, UniProt Q8NET8)
T1 construct: expressed in transfected cells; host or cells: CHO cells (G-418 selected)
T1 sequence (Q8NET8 1-790): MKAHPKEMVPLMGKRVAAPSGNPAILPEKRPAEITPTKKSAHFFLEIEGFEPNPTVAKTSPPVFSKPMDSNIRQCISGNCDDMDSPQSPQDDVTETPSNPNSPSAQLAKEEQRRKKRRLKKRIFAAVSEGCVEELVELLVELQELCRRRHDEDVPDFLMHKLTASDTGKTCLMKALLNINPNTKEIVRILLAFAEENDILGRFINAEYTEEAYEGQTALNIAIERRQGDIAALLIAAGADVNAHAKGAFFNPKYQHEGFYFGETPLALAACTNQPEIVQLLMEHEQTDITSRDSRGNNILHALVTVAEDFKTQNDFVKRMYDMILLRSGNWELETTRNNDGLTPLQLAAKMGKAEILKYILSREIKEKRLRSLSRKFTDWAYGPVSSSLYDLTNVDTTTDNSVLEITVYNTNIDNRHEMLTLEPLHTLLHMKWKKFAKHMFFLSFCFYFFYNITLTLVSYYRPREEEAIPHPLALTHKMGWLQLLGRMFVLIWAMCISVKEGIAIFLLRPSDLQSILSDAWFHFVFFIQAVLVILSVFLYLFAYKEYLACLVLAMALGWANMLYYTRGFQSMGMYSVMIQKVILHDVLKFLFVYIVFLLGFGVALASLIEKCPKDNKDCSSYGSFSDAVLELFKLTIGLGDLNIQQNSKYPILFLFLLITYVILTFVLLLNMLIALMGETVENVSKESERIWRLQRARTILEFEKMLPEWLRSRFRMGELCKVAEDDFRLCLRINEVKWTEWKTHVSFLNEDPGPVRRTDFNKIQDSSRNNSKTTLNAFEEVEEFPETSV
Test: 45Calcium uptake assay: inhibition of 2-APB induced cellular uptake of radioactive calcium
Format: cell-based
Conditions: human TRPV3 expressing CHO cells, 2-APB 500 μM; for inhibition at 1 µM: 1.0 μM compound, read-out: Percentage inhibition at 1.0 μM; for inhibition at 10 µM: 10.0 μM compound, read-out: Percentage inhibition at 10.0 μM
Description: The illustrative examples of the present invention are screened for TRPV3 activity according to a modified procedure described in Toth, A. et al. Life Sciences (2003), 73, 487-498. The screening of the compounds can be carried out by other methods and procedures known to a person skilled in the art. Such screening methods may be found in Hu, H-Z., et al. J. Biol. Chem. (2004), 279, 35741-35748; Smith, G. D et al. Nature (2002), 418, 186-190 and Peier, A. M., et al. Science (2002), 296, 2046-2049.
Screening for TRPV3 Antagonist Using the ^45Calcium Uptake Assay:
The inhibition of TRPV3 receptor activation was followed as inhibition of 2-APB induced cellular uptake of radioactive calcium. Test compounds were dissolved in DMSO to prepare 20 mM stock and then diluted using plain medium with 0.1% BSA and 1.8 mM CaCl2 to get desired concentration. Final concentration of DMSO in the reaction was 0.5% (v/v). Human TRPV3 expressing CHO cells were grown in F-12 DMEM medium with 10% FBS, 1% penicillin-streptomycin solution, 400 μg/ml of G-418. Cells were seeded 24 h prior to the assay in 96 well plates so as to get ˜50,000 cells per well on the day of experiment. Cells were treated with test compounds for 10 minutes followed by addition of 2-APB at a final concentration of 500 μM and 5 μCi/ml ^45Ca^+2 for 4 minutes. Cells were washed and lysed using buffer containing 1% Triton X-100, 0.1% deoxycholate and 0.1% SDS. Radioactivity in the lysate was measured in Packardt Top count after addition of liquid scintillant.
Concentration response curves were plotted as a % of maximal response obtained in the absence of test antagonist. IC50 value was calculated from concentration response curve by nonlinear regression analysis using GraphPad PRISM software.
Percentage inhibition at concentrations of 1.0 μM and 10.0 μM are given in the table along with IC50 (nM) values for selected examples.

Row | Compound | inhibition at 1 µM [%] | inhibition at 10 µM [%] | IC50 [nM]
1 | O=C(Cc1ccccc1)NC1CC2(CCC2)Oc2c(Cl)cccc21 (stereo not shown) [Example 1, N-(8-Chloro-3,4-dihydrospiro[chromene-2,1′-cyclobutan]-4-yl)-2-phenylacetamide] | 1.7 | 10 | 
2 | COc1ccccc1CC(=O)NC1CC2(CCC2)Oc2ccc(Cl)cc21 (stereo not shown) [Example 2, N-(6-Chloro-3,4-dihydrospiro[chromene-2,1′-cyclobutan]-4-yl)-2-(2-methoxyphenyl)-acetamide] | 12 | 79 | > 2000
3 | CS(=O)(=O)Nc1ccccc1CC(=O)NC1CC2(CCC2)Oc2ccc(Cl)cc21 (stereo not shown) [Example 3, N-(6-chloro-3,4-dihydrospiro[chromene-2,1′cyclobutan]-4-yl)-2-{2-[(methylsulfonyl)-amino]phenyl}acetamide] | 0 | 33.1 | 
4 | COc1cccc(CC(=O)NC2CC3(CCC3)Oc3ccc(Cl)cc32)c1OC1CCCC1 (stereo not shown) [Example 4, N-(6-Chloro-3,4-dihydrospiro[chromene-2,1′-cyclobutan]-4-yl)-2-(2-(cyclopentyloxy)-3-methoxyphenyl)acetamide] | 37.2 | 66.2 | 
5 | COc1cccc(CC(=O)N[C@@H]2CC3(CCC3)Oc3c(Cl)cccc32)c1OC1CCCC1 [Example 5, N-[(4R)-8-Chloro-3,4-dihydrospiro[chromene-2,1′-cyclobutan]-4-yl]-2-(2-cyclopentyloxy-3-methoxy)phenylacetamide] | 11.7 | 86.8 | 
6 | COc1cccc(CC(=O)N[C@H]2CC3(CCC3)Oc3c(Cl)cccc32)c1OC1CCCC1 [Example 6, N-[(4S)-8-Chloro-3,4-dihydrospiro[chromene-2,1′-cyclobutan]-4-yl]-2-(2-cyclopentyl-oxy-3-methoxy)phenylacetamide] | 35.3 | 89 | 
7 | COc1ccc(CC(=O)NC2CC3(CCC3)Oc3ccc(Cl)cc32)cc1OC (stereo not shown) [Example 7, N-(6-Chloro-3,4-dihydrospiro[chromene-2,1′-cyclobutan]-4-yl)-2-(3,4-dimethoxyphenyl)acetamide] | 9.2 | 20.3 | 
8 | O=C(Cc1ccccn1)NC1CC2(CCC2)Oc2ccc(Cl)cc21 (stereo not shown) [Example 8, N-(6-Chloro-3,4-dihydrospiro[chromene-2,1′-cyclobutan]-4-yl)-2-pyridin-2-ylacetamide] | 3.8 | 22.5 | 
9 | O=C(Cc1cccc2ccccc12)NC1CC2(CCC2)Oc2ccccc21 (stereo not shown) [Example 9, N-(3,4-dihydrospiro[chromene-2,1′-cyclobutan]-4-yl)-2-(1-naphthyl)acetamide] | 11.7 | 68.5 | 
10 | O=C(Cc1cccc2ccccc12)NC1CC2(CCC2)Oc2ccc(F)cc21 (stereo not shown) [Example 10] | 13.7 | 92.4 | 
11 | O=C(Cc1cccc2ccccc12)N[C@@H]1CC2(CCC2)Oc2c(F)cc(F)cc21 [Example 11, N-[(4R)-6,8-difluoro-3,4-dihydrospiro[chromene-2,1′-cyclobutan]-4-yl]-2-(1-naphthyl)acetamide] | 23.6 | 76 | 
12 | O=C(Cc1cccc2ccccc12)N[C@@H]1CC2(CCC2)Oc2ccc(Cl)cc21 [Example 12, N-[(4R)-6-Chloro-3,4-dihydrospiro[chromene-2,1′-cyclobutan]-4-yl]-2-(1-naphthyl)acetamide] |  |  | 500 to 1000
13 | O=C(Cc1cccc2ccccc12)N[C@H]1CC2(CCC2)Oc2ccc(Cl)cc21 [Example 13, N-[(4S)-6-Chloro-3,4-dihydrospiro[chromene-2,1′-cyclobutan]-4-yl]-2-(1-naphthyl)-acetamide] | 5.9 | 87.6 | 1000 to 2000
14 | O=C(Cc1cccc2ccccc12)NC1CC2(CCC2)Oc2cc(Cl)ccc21 (stereo not shown) [Example 14, N-(7-Chloro-3,4-dihydrospiro[chromene-2,1′-cyclobutan]-4-yl)-2-(1-naphthyl)acetamide] | 9.8 | 78.8 | 
15 | O=C(Cc1cccc2ccccc12)N[C@@H]1CC2(CCC2)Oc2c(Cl)cccc21 [Example 15, N-[(4R)-8-Chloro-3,4-dihydrospiro[chromene-2,1′-cyclobutan]-4-yl]-2-(1-naphthyl)-acetamide] |  | 27.3 | 
16 | O=C(Cc1cccc2ccccc12)N[C@H]1CC2(CCC2)Oc2c(Cl)cccc21 [Example 16, N-[(4S)-8-Chloro-3,4-dihydrospiro[chromene-2,1′-cyclobutan]-4-yl]-2-(1-naphthyl)-acetamide] | 0 | 35.2 | 
17 | O=C(Cc1cccc2ccccc12)NC1CC2(CCC2)Oc2cccc(O)c21 (stereo not shown) [Example 17, N-(5-Hydroxy-3,4-dihydrospiro[chromene-2,1′-cyclobutan]-4-yl)-2-(1-naphthyl)-acetamide] | 21.9 | 70 | 
18 | O=C(Cc1ccc2ccccc2c1)NC1CC2(CCC2)Oc2ccc(Cl)cc21 (stereo not shown) [Example 18, N-(6-Chloro-3,4-dihydrospiro[chromene-2,1′-cyclobutan]-4-yl)-2-(2-naphthyl)acetamide] | 36.1 | 72.3 | 
19 | COc1ccc2cc([C@H](C)C(=O)N[C@@H]3CC4(CCC4)Oc4ccc(Cl)cc43)ccc2c1 [Example 19, (2S)—N-[(4R)-6-Chloro-3,4-dihydrospiro[chromene-2,1′-cyclobutan]-4-yl]-2-(6-methoxy-2-naphthyl)propanamide] | 23.1 | 61.7 | 
20 | COc1ccc2cc([C@H](C)C(=O)N[C@H]3CC4(CCC4)Oc4ccc(Cl)cc43)ccc2c1 [Example 20, (2S)—N-[(4S)-6-Chloro-3,4-dihydrospiro[chromene-2,1′-cyclobutan]-4-yl]-2-(6-methoxy-2-naphthyl)propanamide] | 19.3 | 50.9 | 
21 | O=C(CC1CCCc2ccccc21)NC1CC2(CCC2)Oc2ccc(Cl)cc21 (stereo not shown) [Example 21, N-(6-Chloro-3,4-dihydrospiro[chromene-2,1′-cyclobutan]-4-yl)-2-(1,2,3,4-tetrahydronaphthalen-1-yl)acetamide] | 63.5 | 93.6 | 500 to 1000
22 | O=C(CC1CCc2ccccc2C1)NC1CC2(CCC2)Oc2ccc(Cl)cc21 (stereo not shown) [Example 22, N-[(6-Chloro-3,4-dihydrospiro[chromene-2,1′-cyclobutan]-4-yl)]-2-(1,2,3,4-tetrahydronaphthalen-2-yl)acetamide] | 35.3 | 72.1 | 
23 | O=C(Cc1ccc2c(c1)OCO2)NC1CC2(CCC2)Oc2ccc(Cl)cc21 (stereo not shown) [Example 23, 2-(1,3-Benzodioxol-5-yl)-N-(6-chloro-3,4-dihydrospiro[chromene-2,1′-cyclobutan]-4-yl)acetamide] | 6.2 | 65.3 | 
24 | Cc1c(CC(=O)NC2CC3(CCC3)Oc3ccc(F)cc32)[nH]c2ccc(F)cc12 (stereo not shown) [Example 24, N-(6-Fluoro-3,4-dihydrospiro[chromene-2,1′-cyclobutan]-4-yl)-2-(5-fluoro-3-methyl-1H-indol-2-yl)acetamide] | 26.9 | 89.9 | 1000 to 2000
25 | COc1ccc2[nH]c(C)c(CC(=O)NC3CC4(CCC4)Oc4ccc(Cl)cc43)c2c1 (stereo not shown) [Example 25, N-(6-Chloro-3,4-dihydrospiro[chromene-2,1′-cyclobutan]-4-yl)-2-(5-methoxy-2-methyl-1H-indol-3-yl)acetamide] | 19 | 48 | 
